In the RepoRT retention time repository:

Experiment: Waters ACQUITY UPLC HSS T3, 0.4 mL/min; A: water + 0.1% formic acid; B: acetonitrile + 0.1% formic acid; gradient (min/%B) 0/5 1.5/5 12/95 14/95 14.01/100 17/100
Details: stereoisomer not certain

Compound | LC retention time [min]
C=CC(C)(CCC=C(C)CCC=C(C)CCC(OC1OC(CO)C(O)C(O)C1O)C(C)(C)O)OC1OC(CO)C(O)C(O)C1O (stereo not given) | 4.81
CCCCCC(C)S (stereo not given) | 1.3
CCCCCCC=CC=CCCCCCCCC(=O)OC(COC(=O)CCCCCCCCC(C)C)COP(=O)(O)OCC(O)CO (stereo not given) | 12.1
OC1CC2CC(O)C(C1)N2 (stereo not given) | 0.818
CC(C)C1=CC2(O)CCC3C(C)(C(=O)O)CCCC3(C)C2CC1=O (stereo not given) | 4.99
CC(C)SC(C)C | 1.02
Nc1cncn1C1OC(COP(=O)(O)O)C(O)C1O (stereo not given) | 0.711
C=C(CO)C1CCC(C)(O)C(OC2OC(CO)C(O)C(O)C2O)C1 (stereo not given) | 3.99
C=C(C)C1CCC(C)(O)C1CC1=C(O)C(=C(O)c2ccccc2)C(=O)C(CC=C(C)C)(CC=C(C)C)C1=O (stereo not given) | 8.61
COc1cc(CCCO)ccc1OC(CO)COC1OCC(O)C(O)C1O (stereo not given) | 0.755
CC(C)C(CCC(C)C1CC(O)C2C1(C)CCC1C3(C)CCC(OC4OCC(O)C(O)C4O)CC3C(O)CC12O)OC1OCC(O)C(O)C1O (stereo not given) | 5.56
CNC(CCC(=O)O)C(=O)O (stereo not given) | 0.912
CC1=C2C(CC3(C)OC3CCC3(C)OC3C2O)OC1=O (stereo not given) | 6.31
C=C(C)C1CCC2(C(=O)O)CCC3(C)C(CCC4C5(C)CC(O)C(OC(=O)C=Cc6ccc(O)cc6)C(C)(C)C5CCC43C)C12 (stereo not given) | 11
COc1cc2c(c(OC)c1CC=C(C)C)CC(c1ccc(O)c3c1OC(C)(C)C=C3)CO2 (stereo not given) | 4.37
CC(C)CC(N)C(=O)NC(CCC(=O)O)C(=O)O (stereo not given) | 1.05
CC1C(=O)OC2C3=C(C(=O)CC3(C)O)C(C)(O)CCC12 (stereo not given) | 6.31
C=C1C(=O)OC2C1CCC(=O)CC1(C)CCC(O)OC21 (stereo not given) | 6.31
Nc1nc2c(ncn2CCC(CO)CO)c(=O)[nH]1 | 1.03
CC(=O)NC(CO)C(=O)O (stereo not given) | 0.786
CCC(=O)C1CC(C)C2(CC(=O)C3(C)C4=C(CCC32C)C2(C)C=CC(=O)C(C)(CO)C2CC4)O1 (stereo not given) | 5.53
CC(=O)OC(CC(=O)[O-])C[N+](C)(C)C (stereo not given) | 0.839
CC(=O)OCCC(N)C(=O)O (stereo not given) | 0.912
NCCC(=O)O | 0.806
Nc1ncnc2c1ncn2C1OC(CO)C(OP(=O)(O)O)C1O (stereo not given) | 0.934
CCCCN(CCCN(CCCN(CCCN)CCCN)CCCN(CCCN)CCCN)CCCN(CCCN(CCCN)CCCN)CCCN(CCCN)CCCN | 0.706
CN(C)C | 0.706

Compound | LC retention time [min]
O=S(=O)([O-])CCCCCCCP(CCCCCCCS(=O)(=O)[O-])CN(CP(CCCCCCCS(=O)(=O)[O-])CCCCCCCS(=O)(=O)[O-])c1ccccc1 | 1.3
CCCCCCC=CCCCCCCCCCC(=O)OC(CCC(=O)[O-])[N+](C)(C)C (stereo not given) | 9.56
CCCCCCCCCCCCCCCCCC(=O)OC(CO)COP(=O)(O)OCC(O)CO (stereo not given) | 5.64
CCC(C)C(=O)OC(CC(=O)[O-])C[N+](C)(C)C (stereo not given) | 4.04
CCCCCCCCCCCCCCCCCCC(=O)OCC(O)COP(=O)(O)OCC(N)C(=O)O (stereo not given) | 5.17
Cc1cc(O)cc(O)c1C(=O)OC1CC2(C)C3CC(C)(C)CC3C=C(C=O)C12 (stereo not given) | 10.6
CN1CC(=O)NC1=N | 0.794
O=C(O)CCCSCCCCSCCCC(=O)O | 0.766
CC1(C)OC2(C)C(O)CC1CC2OC1OC(CO)C(O)C(O)C1O (stereo not given) | 3.99
CCC(C)C(C(=O)NC(C(=O)NC1C(=O)NC(Cc2c[nH]c3ccccc23)C(=O)NCC(=O)c2ccc(cc2)OC1(C)C)C(C)C)N(C)C (stereo not given) | 5.47
CCCCC(S)CCOC (stereo not given) | 0.75
CCCCCC=CCC=CCCCCCCCC(=O)OC(COC(=O)CCCCCCCC=CCCCCCC)COP(=O)(O)OCC(O)CO (stereo not given) | 13.9
CCCCCCCCCCCCCCCCCC(=O)OCC(O)COP(=O)(O)OCC(O)CO (stereo not given) | 5.64
CC1(COC(=O)c2ccccc2)CCC2(C)CCC3(C)C4=CCC5C(C)(CCC(OC(=O)c6ccc(N)cc6)C5(C)C)C4=CCC3(C)C2C1 (stereo not given) | 10.9
CCCCC(CC)CS (stereo not given) | 0.766
CC(C)C(N)C(=O)O (stereo not given) | 1.02
CC1CCC2C(C)C3C(CC4C5CC=C6CC(OC7OC(CO)C(O)C(OC8OC(CO)C(O)C(O)C8O)C7O)CCC6(C)C5CCC43C)N2C1 (stereo not given) | 9.86
NCCCCCCCCCCCC(=O)O | 6.54
Nc1[nH]c(=O)nc2c1ncn2C1CC(O)C(COP(=O)(O)O)O1 (stereo not given) | 0.934
CCC1OC(=O)C(C)C(OC2CC(C)(O)C(O)C(C)O2)C(C)C(O)C(C)(O)CC(C)C(=O)C(C)C(O)C1C (stereo not given) | 9.82
CCCCCC=CCC(O)C=CC=CCC=CCCCC(=O)NCCS(=O)(=O)O (stereo not given) | 4.09
CCCCCCC=CCCCCCCCC(=O)OC(CO)COP(=O)(O)OCCN (stereo not given) | 4.91
O=C(O)CCNCC(=O)O | 0.786
CNCC(=O)O | 0.806
CCCCCCC=CCCCCCCCC(=O)OCC(COP(=O)(O)OCC(O)CO)OC(=O)CCCCCCCC=CCCCCCC (stereo not given) | 13
CNc1ccccc1C(=O)OCC(C)C | 4.98
CCC=CCC(O)C=CC=CC=CC=CC(O)C(O)CC=CCCC(=O)O (stereo not given) | 5.01

Compound | LC retention time [min]
CC(C)=CCCC(C)CCOC1OC(CO)C(O)C(O)C1OC1OC(CO)C(O)C(O)C1O (stereo not given) | 4.52
CC(C=CCC1C(=O)CCC1CC(=O)O)OC1OC(CO)C(O)C(O)C1O (stereo not given) | 0.755
CC(NC(=O)C(N)CC(=O)O)NC(=O)N(C)C(C)(C)C (stereo not given) | 0.829
CCC=CCC=CCC=CCC=CCC=CCC=CCCC(=O)OC(CO)COP(=O)(O)OCCN (stereo not given) | 4.65
CCCCCC=CCC=CCC=CCCCCC(=O)OCC(COP(=O)(O)OCC(O)CO)OC(=O)CCCCCCCCCCCCCCC (stereo not given) | 13.9
CC(CCc1ccccc1)NCC(O)c1ccc(O)c(C(N)=O)c1 (stereo not given) | 4.52
CCCCCC(O)C=CC1=CCC(=O)C1CC=CCCCC(=O)O (stereo not given) | 4.99
CC(C)CC(N)C(=O)O (stereo not given) | 1.31
CC1(C)C(O)CC(O)C23C(=O)OC4OCC(=CCC12)C43 (stereo not given) | 6.31
O=c1[nH]cnc2[nH]ncc12 | 1.1
CCCCCCCCCCCCCCCCCCOC(=O)C(O)(CC(=O)O)CC(=O)O | 10.5
Nc1ncnc2c1ncn2C1OC(CO)C(O)C1OP(=O)(O)O (stereo not given) | 0.934
CCCCCCCCCCCCCCCC(=O)OCC(COP(=O)([O-])OCC[N+](C)(C)C)OC(=O)CCCC(O)C=CC=O (stereo not given) | 5.43
COc1cc2c(cc1OC)CN(C)CC2 | 4.98
O=C(O)CCCC(O)C=CC=CCCC(O)CC=CCCCCC(O)(O)O (stereo not given) | 8.55
C=CC1(CO)CCC(C(C)(C)OC2OC(CO)C(O)C(O)C2O)O1 (stereo not given) | 3.99
Nc1nc2c(ncn2C2CC(O)C(COP(=O)(O)O)O2)c(=O)[nH]1 (stereo not given) | 0.934
CC1(O)CCC(C(C)(C)OC2OC(CO)C(O)C(O)C2O)CC1O (stereo not given) | 5.08
CC(=O)C1CCC2C3CCC4CC(=O)CCC4(C)C3CCC12C (stereo not given) | 11.8
CCCC(N)C(=O)O (stereo not given) | 1.02
CC1CCC(C(C)(O)CO)CC1OC1OC(CO)C(O)C(O)C1O (stereo not given) | 5.08
CC(C)C(=O)OC(CC(=O)[O-])C[N+](C)(C)C (stereo not given) | 3
CNC(CC(=O)O)C(=O)O (stereo not given) | 0.786
CC(C)=CCCC(C)(O)C1CCC2(C)C1C(O)CC1C3(C)CCC(OC4OC(CO)C(O)C(O)C4OC4OC(CO)C(O)C(O)C4O)C(C)(C)C3CCC12C (stereo not given) | 9.82
CCCCCC=CCC=CCCCCCCCC(=O)OCC(COP(=O)(O)OCC(O)CO)OC(=O)CCCCCCCC=CCCCCCC (stereo not given) | 13.9
CCCCCCCCC=CCCCCCCCC(=O)OC(CC(=O)[O-])C[N+](C)(C)C (stereo not given) | 9.56
